{
  "source": "patent US6500825B2",
  "about": "“Substituted 2-aminoacetamides and the use thereof” (Euro-Celtique S.A., priority 1997, dated 2002)",
  "key": {"[1]": {"system": "maximal electroshock-induced seizures (MES)", "assay": "Maximal electroshock-induced seizures (MES) iv in mouse", "format": "in vivo", "settings": "administered iv 10 min before the test, tonic hindlimb extensor response", "description": "The ability of selected 2-methylpropanamide derivatives to block maximal electroshock-induced seizures (MES) was determined by the following procedure. Seizures were induced by application of current (50 mA, 60 pulses/sec, 0.8 msec pulse width, 1 sec duration, D.C.) using a Ugo Basile ECT device (model 7801). Mice were restrained by gripping the loose skin on their dorsal surface and saline-coated corneal electrodes were held lightly against the two cornea. […] A tonic seizure was defined as a hindlimb extension in excess of 90 degrees from plane of the body. The 2-methylpropanamides tested were administered iv to mice 10 min before the test procedure."}, "[2]": {"system": "voltage-sensitive Na+ channels", "assay": "Electrophysiological assay: patch-clamp recordings of voltage-sensitive Na+ currents in acutely dissociated rat hippocampal neurons", "format": "cell-based", "description": "Electrophysiological Assay\nCell preparation: Acute cultures of rat hippocamnpal neurons were prepared daily using a modification of procedures described previously (Kuo and Bean, Mol. Pharm. 46:716-725 (1994)). Briefly, hippocampi were isolated from 3-11 day old rat pup brains (Sprague-Dawley; Charles River) and were sectioned, by hand, into 0.5-1 mm thick transyerse slices (Whittemore and Koerner, Eur. J. Pharm. 192:435-438 (1991)). Slices were incubated for at least 30 min at room temperature (20-24° C.) in an oxygenated medium (124 mM NaCl, 3.3 mM KCl, 2.4 mM MgSO4, 2.5 mM CaCl2, 1.2 mM KH2PO4, 26 mM NaHCO3, pH=7.4) continuously bubbled with 5% CO2/95% O2. Prior to recording, 4-5 slices were transferred to an oxygenated dissociation medium (82 mM NaSO4, 30 mM K2SO4, 3 mM MgCl2, 2 mM HEPES, 26 mM NaHCO3, 0.001% phenol red, pH=7.4) containing 3 mg/mL protease XXIII (Sigma, St. Louis, Mo.) and incubated for 10-15 min at 37° C., while continuously bubbling with 5% CO2/95% O2. Enzymatic digestion was terminated by transferring the slices to dissociation medium without bicarbonate, supplemented with 1 mg/mL bovine serum albumin and 1 mg/mL trypsin inhibitor (Sigma, St. Louis, Mo.). Slices were then transferred to a 35 mm culture dish containing dissociation medium without bicarbonate, and triturized with a fire-polished glass Pasteur pipette to release single cells. […]\nPatch-clamp recordings of voltage-sensitive Na^+ currents: Whole-cell voltage-clamp recordings were made using conventional patch-clamp technique (Hamill et al., Pfluegers Arch. 391:85-100 (1981)) with an Axopatch 200A amplifier (Axon Instruments, Foster City, Calif.). […] Currents were recorded at room temperature (22-25° C.), filtered at 5 kHz with 4-pole Bessel filter, digitized at 20-50-μs intervals, and stored using Digidata 1200 analog/digital interface with Pclamp6/Clampex software (Axon Instruments). […] The inhibitory potency of drugs was assessed by measuring reductions in the peak amplitude of […] currents induced by increasing concentrations of compounds tested. […]"}},
  "data": [
    {"molecule": "CC(C)(NCc1ccc(Oc2ccc3c(c2)OCO3)cc1)C(N)=O", "note": "[3,4-methylenedioxyphenoxy, 2-(4-(3,4-Methylenedioxyphenoxy)benzylamino)-2-methyl-propanamide]", "values": [
      {"measurement": "iv MES activity (number protected/number screened)", "setting": "[1]", "value": "8/8"}
    ]},
    {"molecule": "CC(C)(NCc1ccc(Oc2ccc(F)cc2)cc1)C(N)=O", "note": "[4-fluorophenoxy, 2-(4-(4-Fluorophenoxy)benzylamino)-2-methylpropanamide]", "values": [
      {"measurement": "iv MES activity (number protected/number screened)", "setting": "[1]", "value": "8/8"},
      {"measurement": "melting point", "value": "103 to 106", "unit": "°C"}
    ]},
    {"molecule": "CC(C)(NCc1ccc(Oc2ccc3c(c2)CCC3)cc1)C(N)=O", "note": "[Example 5-indanoxy, 2-(4-(5-Indanoxy)benzylamino)-2-methylpropanamide]", "values": [
      {"measurement": "iv MES activity (number protected/number screened)", "setting": "[1]", "value": "1/8"},
      {"measurement": "melting point", "value": "81 to 83", "unit": "°C"}
    ]},
    {"molecule": "CC(C)(NCc1ccc(OCc2ccccc2F)cc1)C(N)=O", "note": "[2-(4-(2-Fluorobenzyloxy)benzylamino)-2-methyl-propanamide]", "values": [
      {"measurement": "inhibition of voltage-gated Na+ currents", "setting": "[2]; acutely dissociated rat hippocampal neurons", "value": "dose-dependent inhibition"},
      {"measurement": "effect on Na+ currents activated from a holding membrane voltage of −100 mV", "setting": "[2]; concentrations between 0.1-10 μM, holding voltage −100 mV", "value": "very little effect"},
      {"measurement": "Kd", "setting": "[2]; inactivated Na+ channels, acutely dissociated rat hippocampal neurons, read-out: apparent antagonist dissociation constant (Kd) for inactivated Na+ channels", "value": "~1.2", "unit": "µM"}
    ]},
    {"molecule": "CC(C)(NCc1ccc(Oc2ccc(F)cc2F)cc1)C(N)=O", "note": "[2,4-difluorophenoxy, 2-(4-(2,4-Difluorophenoxy)benzylamino)-2-methylpropanamide]", "values": [
      {"measurement": "iv MES activity (number protected/number screened)", "setting": "[1]", "value": "8/8"}
    ]}
  ]
}
